test system: not given; assay: not given; conditions: not given

SMILES	melting point [°C]
CN1Cc2c(Cl)cc(Cl)cc2C(c2ccc(Nc3c(N(C)C4CCCCC4)c(=O)c3=O)cc2)C1 (centres unmarked) [Example 17, 6,8-dichloro-2-methyl-4-[4N-(2-N-cyclohexyl-N-methylamino-3,4-dioxocyclobuten-1-yl)amino]phenyl-1,2,3,4-tetrahydroisoquinoline]	260 to 265
CN1Cc2c(Cl)cc(Cl)cc2[C@H](c2ccc(Nc3c(NC4CC4)c(=O)c3=O)cc2)C1 [Example 35]	280 to 285
CN1Cc2c(Cl)cc(Cl)cc2C(c2ccc(Nc3c(Nc4ccccc4)c(=O)c3=O)cc2)C1 (centres unmarked) [Example 43, 6,8-dichloro-2-methyl-4-[4N-(2-N-phenylamino-3,4-dioxocyclobuten-1-yl)amino]phenyl-1,2,3,4-tetrahydroisoquinoline]	288 to 294
CCNc1c(Nc2ccc(C3CN(C)Cc4c(Cl)cc(Cl)cc43)cc2)c(=O)c1=O (centres unmarked) [Example 51, 6,8-dichloro-2-methyl-4-[4N-(2-N-ethylamino-3,4-dioxocyclobuten-1-yl)amino]phenyl-1,2,3,4-tetrahydroisoquinoline]	292 to 297
CNc1c(Nc2ccc(C3CN(C)Cc4c(Cl)cc(Cl)cc43)cc2)c(=O)c1=O (centres unmarked) [Example 53, 6,8-dichloro-2-methyl-4-[4N-(2N-methylamino-3,4-dioxocyclobuten-1-yl)amino]phenyl-1,2,3,4-tetrahydroisoquinoline]	328 to 334
CN1Cc2c(Cl)cc(Cl)cc2C(c2ccc(Nc3c(NC4CCCC4)c(=O)c3=O)cc2)C1 (centres unmarked) [Example 54]	300 to 304
CN1Cc2c(Cl)cc(Cl)cc2C(c2ccc(Nc3c(NCc4ccco4)c(=O)c3=O)cc2)C1 (centres unmarked) [Example 56, 6,8-dichloro-2-methyl-4-[4N-(2N-(2-furylmethyl)amino-3,4-dioxocyclobuten-1-yl)amino]phenyl-1,2,3,4-tetrahydroisoquinoline]	264 to 268
CN(C)CCNc1c(Nc2ccc(C3CN(C)Cc4c(Cl)cc(Cl)cc43)cc2)c(=O)c1=O (centres unmarked) [Example 57]	262 to 266
CCCCCCNc1c(Nc2ccc(C3CN(C)Cc4c(Cl)cc(Cl)cc43)cc2)c(=O)c1=O (centres unmarked) [Example 58]	234 to 238
CN1Cc2c(Cl)cc(Cl)cc2C(c2ccc(Nc3c(NCc4cccnc4)c(=O)c3=O)cc2)C1 (centres unmarked) [Example 59]	288 to 290
CN1Cc2c(Cl)cc(Cl)cc2C(c2cccc(Nc3c(NC4CCCC4)c(=O)c3=O)c2)C1 (centres unmarked) [Example 63, 6,8-dichloro-2-methyl-4-[3N-(2-cyclopentylamino-3,4-dioxocyclobuten-1-yl)amino]phenyl-1,2,3,4-tetrahydroisoquinoline]	248 to 252

Continued, values first:

melting point [°C]	SMILES
240 to 247	CN1Cc2c(Cl)cc(Cl)cc2[C@H](c2ccc(Nc3c(N(C)C)c(=O)c3=O)cc2)C1 [Example 20, 6,8-dichloro-2-methyl-4(S)-[4N-(2-dimethylamino-3,4-dioxocyclobuten-1-yl)amino]phenyl-1,2,3,4-tetrahydroisoquinoline]
236 to 240	CN1Cc2c(Cl)cc(Cl)cc2[C@H](c2ccccc2Nc2c(N(C)C)c(=O)c2=O)C1 [Example 21, 6,8-dichloro-2-methyl-4(R)-[2N-(2-dimethylamino-3,4-dioxocyclobuten-1-yl)amino]phenyl-1,2,3,4-tetrahydroisoquinoline]
224 to 230	CNc1c(Nc2ccccc2C2CN(C)Cc3c(Cl)cc(Cl)cc32)c(=O)c1=O (centres unmarked) [Example 44, 6,8-dichloro-2-methyl-4-[2N-(2-N-methylamino-3,4-dioxocyclobuten-1-yl)amino]phenyl-1,2,3,4-tetrahydroisoquinoline]
157 to 160	CCCCCCNc1c(Nc2ccccc2C2CN(C)Cc3c(Cl)cc(Cl)cc32)c(=O)c1=O (centres unmarked) [Example 45, 6,8-dichloro-2-methyl-4-[2N-(2-N-(1-hexylamino)-3,4-dioxocyclobuten-1-yl)amino]phenyl-1,2,3,4-tetrahydroisoquinoline]
238 to 241	CC(C)Nc1c(Nc2ccccc2C2CN(C)Cc3c(Cl)cc(Cl)cc32)c(=O)c1=O (centres unmarked) [Example 46, 6,8-dichloro-2-methyl-4-[2N-(2-N-isopropylamino-3,4-dioxocyclobuten-1-yl)amino]phenyl-1,2,3,4-tetrahydroisoquinoline]
278 to 281	CN1Cc2c(Cl)cc(Cl)cc2C(c2ccccc2Nc2c(NC3CCCC3)c(=O)c2=O)C1 (centres unmarked) [Example 47, 6,8-dichloro-2-methyl-4-[2N-(2-N-cyclopentylamino-3,4-dioxocyclobuten-1-yl)amino]phenyl-1,2,3,4-tetrahydroisoquinoline]
279 to 283	CN1Cc2c(Cl)cc(Cl)cc2C(c2ccccc2Nc2c(NCc3ccco3)c(=O)c2=O)C1 (centres unmarked) [Example 48, 6,8-dichloro-2-methyl-4-[2N-(2N-(2-furylmethyl)amino-3,4-dioxocyclobuten-1-yl)amino]phenyl-1,2,3,4-tetrahydroisoquinoline]
205 to 208	CCNc1c(Nc2ccccc2C2CN(C)Cc3c(Cl)cc(Cl)cc32)c(=O)c1=O (centres unmarked) [Example 49, 6,8-dichloro-2-methyl-4-[2N-(2-N-ethylamino-3,4-dioxocyclobuten-1-yl)amino]phenyl-1,2,3,4-tetrahydroisoquinoline]
208 to 211	CN(C)CCNc1c(Nc2ccccc2C2CN(C)Cc3c(Cl)cc(Cl)cc32)c(=O)c1=O (centres unmarked) [Example 50, 6,8-dichloro-2-methyl-4-[2N-(2-N-dimethylaminoethylamino-3,4-dioxocyclobuten-1-yl)amino]phenyl-1,2,3,4-tetrahydroisoquinoline]
244 to 246	CN1Cc2c(Cl)cc(Cl)cc2C(c2ccccc2Nc2c(NCc3cccnc3)c(=O)c2=O)C1 (centres unmarked) [Example 52, 6,8-dichloro-2-methyl-4-[2N-(2N-(3-picolylmethyl)amino-3,4-dioxocyclobuten-1-yl)amino]phenyl-1,2,3,4-tetrahydroisoquinoline]
268 to 272	CC(C)Nc1c(Nc2ccc(C3CN(C)Cc4c(Cl)cc(Cl)cc43)cc2)c(=O)c1=O (centres unmarked) [Example 55, 6,8-dichloro-2-methyl-4-[4N-(2N-isopropylamino-3,4-dioxocyclobuten-1-yl)amino]phenyl-1,2,3,4-tetrahydroisoquinoline]
295 to 298	CNc1c(Nc2cccc(C3CN(C)Cc4c(Cl)cc(Cl)cc43)c2)c(=O)c1=O (centres unmarked) [Example 60]
240 to 244	CC(C)Nc1c(Nc2cccc(C3CN(C)Cc4c(Cl)cc(Cl)cc43)c2)c(=O)c1=O (centres unmarked) [Example 64]
198 to 200	CN(C)CCNc1c(Nc2cccc(C3CN(C)Cc4c(Cl)cc(Cl)cc43)c2)c(=O)c1=O (centres unmarked) [Example 65]

target: T1, NHE3 (Homo sapiens, UniProt P48764); assay: Determination of the NHE-inhibitory effect (recovery of intracellular pH after acidification, BCECF); assay type: cell-based; conditions: BCECF fluorescence, NHE subtype not given
T1 construct: host or cells: cells, not specified
T1 sequence (P48764 26-834): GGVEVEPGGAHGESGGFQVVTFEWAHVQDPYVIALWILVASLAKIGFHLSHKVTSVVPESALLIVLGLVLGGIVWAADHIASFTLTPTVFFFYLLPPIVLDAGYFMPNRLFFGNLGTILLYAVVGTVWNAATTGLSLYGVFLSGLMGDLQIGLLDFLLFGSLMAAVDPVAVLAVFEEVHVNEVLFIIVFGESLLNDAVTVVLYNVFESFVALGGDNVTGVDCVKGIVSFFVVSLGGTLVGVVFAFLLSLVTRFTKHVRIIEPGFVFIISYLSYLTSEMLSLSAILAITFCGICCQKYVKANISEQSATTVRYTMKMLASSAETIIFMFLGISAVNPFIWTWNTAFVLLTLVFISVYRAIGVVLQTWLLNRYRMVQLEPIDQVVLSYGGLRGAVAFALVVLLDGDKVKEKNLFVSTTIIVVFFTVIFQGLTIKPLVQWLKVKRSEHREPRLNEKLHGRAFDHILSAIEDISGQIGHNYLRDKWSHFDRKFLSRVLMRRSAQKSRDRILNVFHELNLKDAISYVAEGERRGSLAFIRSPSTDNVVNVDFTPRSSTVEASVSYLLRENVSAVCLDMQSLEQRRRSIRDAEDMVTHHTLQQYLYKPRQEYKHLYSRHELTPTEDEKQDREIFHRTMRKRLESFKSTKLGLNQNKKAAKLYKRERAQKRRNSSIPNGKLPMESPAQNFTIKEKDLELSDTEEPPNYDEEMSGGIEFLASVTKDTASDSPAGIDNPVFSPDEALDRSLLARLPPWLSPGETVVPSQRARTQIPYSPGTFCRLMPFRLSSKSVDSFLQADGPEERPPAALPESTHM
Experimental: [drawing 82] was obtained in analogy to the method indicated in Example 16 from 6,8-dichloro-2-methyl-4(R)-[2N-(2-ethoxy-3,4-dioxocyclobuten-1-yl)amino]-phenyl-1,2,3,4-tetrahydroisoquinoline (Example 6) and methylamine. Crystalline solid, m.p. 265° C. Pharmacological Data: Assay: Determination of the NHE-Inhibitory Effect
In this assay, the recovery of the intracellular pH (pHj) after an acidification which occurs even under bicarbonate-free conditions with functional NHE was determined. To this end, the pHj was determined using the pH-sensitive fluorescent dye BCECF (calbiochem, the precursor BCECF-AM was employed). The cells were initially loaded with BCECF. The BCECF fluorescence was determined in a ratio fluorescence spectrometer (Photon Technology International, South Brunswick, N.J., USA) with excitation wavelengths of 505 and 440 nm and an emission wavelength of 535 nm and converted into the pHj using calibration plots. The cells had been incubated in NH4Cl buffer (pH 7.4) for the BCECF loading (NH4Cl buffer: 115 mM NaCl, 20 mM NH4Cl, 5 mM KCl, 1 mM CaCl2, 1 mM MgSO4, 20 mM Hepes, 5 mM glucose, 1 mg/ml BSA; a pH of 7.4 was adjusted with 1 M NaOH). The intracellular acidification was induced by adding 975 μl of an NH4Cl-free buffer (see below) to 25 μl aliquots of the cells incubated in NH4Cl buffer. The subsequent rate of pH recovery was recorded for two minutes with NHE1, five minutes with NHE2 and three minutes with NHE3. To calculate the inhibitory power of the tested substances, the cells were initially investigated in buffers with which there was complete or absolutely no pH recovery. For complete pH recovery (100%), the cells were incubated in Na^+-containing buffer (133.8 mM NaCl, 4.7 mM KCl, 1.25 mM CaCl2, 1.25 mM MgCl2, 0.97 mM Na2HPO4, 0.23 mM NaH2PO4, 5 mM Hepes, 5 mM glucose, a pH of 7.0 was adjusted with 1 M NaOH). To determine the 0% value, the cells were incubated in an Na^+-free buffer (133.8 mM choline chloride, 4.7 mM KCl, 1.25 mM CaCl2, 1.25 mM MgCl2, 0.97 mM K2HPO4, 0.23 mM KH2PO4, 5 mM Hepes, 5 mM glucose, a pH of 7.0 was adjusted with 1 M NaOH). The substances to be tested were made up in the Na^+-containing buffer. The recovery of the intracellular pH at each tested concentration of a substance was expressed as a percentage of the maximum recovery. The IC50 of the respective substance for the individual NHE subtypes was calculated from the percentages of pH recovery using the Sigma Plot program.

IC50 [nM]	SMILES
98.5	CN1Cc2c(Cl)cc(Cl)cc2[C@H](c2cccc(Nc3c(N(C)C)c(=O)c3=O)c2)C1 [Example 22, 6,8-dichloro-2-methyl-4(S)-[3N-(2-dimethylamino-3,4-dioxocyclobuten-1-yl)amino]phenyl-1,2,3,4-tetrahydroisoquinoline]
